Question: Which solubility (mole fraction) (in 1,4-dioxane, 288.15 K) does the source give for `CS(=O)(=O)c1ccc([C@@H](O)[C@@H](CO)NC(=O)C(Cl)Cl)cc1` here?
Answer: 0.000384

Question: And the solubility (mole fraction) (in 1,4-dioxane, 293.15 K)?
Answer: 0.000508

Question: And the solubility (mole fraction) (in 1,4-dioxane, 298.15 K)?
Answer: 0.000728

Question: And the solubility (mole fraction) (in 1,4-dioxane, 303.15 K)?
Answer: 0.000973

Question: What about the solubility (mole fraction) (in 1,4-dioxane, 308.15 K) of the same molecule?
Answer: 0.0013

Question: What about the solubility (mole fraction) (in 1,4-dioxane, 313.15 K) of the same molecule?
Answer: 0.00173

Question: What about the solubility (mole fraction) (in 1,4-dioxane, 318.15 K) of the same molecule?
Answer: 0.00227

Question: What about the solubility (mole fraction) (in 2-butanone, 278.15 K) of the same molecule?
Answer: 0.000139

Question: What about the solubility (mole fraction) (in 2-butanone, 283.15 K) of the same molecule?
Answer: 0.000197

Question: What about the solubility (mole fraction) (in 2-butanone, 288.15 K) of the same molecule?
Answer: 0.000286

Question: And the solubility (mole fraction) (in 2-butanone, 293.15 K)?
Answer: 0.000379

Question: And the solubility (mole fraction) (in 2-butanone, 298.15 K)?
Answer: 0.00051

Question: What about the solubility (mole fraction) (in 2-butanone, 303.15 K) of the same molecule?
Answer: 0.000704

Question: And the solubility (mole fraction) (in 2-butanone, 308.15 K)?
Answer: 0.000952

Question: What about the solubility (mole fraction) (in 2-butanone, 313.15 K) of the same molecule?
Answer: 0.00125

Question: What about the solubility (mole fraction) (in 2-butanone, 318.15 K) of the same molecule?
Answer: 0.00166

Question: And the solubility (mole fraction) (in DMF, 278.15 K)?
Answer: 0.0092

Question: And the solubility (mole fraction) (in DMF, 283.15 K)?
Answer: 0.012

Question: What about the solubility (mole fraction) (in DMF, 288.15 K) of the same molecule?
Answer: 0.0156

Question: And the solubility (mole fraction) (in DMF, 293.15 K)?
Answer: 0.0199

Question: What about the solubility (mole fraction) (in DMF, 298.15 K) of the same molecule?
Answer: 0.025

Question: And the solubility (mole fraction) (in DMF, 303.15 K)?
Answer: 0.0308

Question: And the solubility (mole fraction) (in DMF, 308.15 K)?
Answer: 0.0379

Question: What about the solubility (mole fraction) (in DMF, 313.15 K) of the same molecule?
Answer: 0.0457

Question: What about the solubility (mole fraction) (in DMF, 318.15 K) of the same molecule?
Answer: 0.0553

Question: What about the solubility (mole fraction) (in acetone, 278.15 K) of the same molecule?
Answer: 0.000283

Question: What about the solubility (mole fraction) (in acetone, 283.15 K) of the same molecule?
Answer: 0.000425

Question: And the solubility (mole fraction) (in acetone, 288.15 K)?
Answer: 0.000585

Question: What about the solubility (mole fraction) (in acetone, 293.15 K) of the same molecule?
Answer: 0.00084

Question: What about the solubility (mole fraction) (in acetone, 298.15 K) of the same molecule?
Answer: 0.00112

Question: And the solubility (mole fraction) (in acetone, 303.15 K)?
Answer: 0.00149

Question: What about the solubility (mole fraction) (in acetone, 308.15 K) of the same molecule?
Answer: 0.00202

Question: And the solubility (mole fraction) (in acetone, 313.15 K)?
Answer: 0.00268

Question: And the solubility (mole fraction) (in acetone, 318.15 K)?
Answer: 0.00352

Question: And the solubility (mole fraction) (in acetonitrile, 278.15 K)?
Answer: 7.96e-05

Question: What about the solubility (mole fraction) (in acetonitrile, 283.15 K) of the same molecule?
Answer: 0.000119

Question: And the solubility (mole fraction) (in acetonitrile, 288.15 K)?
Answer: 0.000177

Question: And the solubility (mole fraction) (in acetonitrile, 293.15 K)?
Answer: 0.000259

Question: And the solubility (mole fraction) (in acetonitrile, 298.15 K)?
Answer: 0.000363

Question: And the solubility (mole fraction) (in acetonitrile, 303.15 K)?
Answer: 0.000502

Question: And the solubility (mole fraction) (in acetonitrile, 308.15 K)?
Answer: 0.000716

Question: What about the solubility (mole fraction) (in acetonitrile, 313.15 K) of the same molecule?
Answer: 0.00098

Question: What about the solubility (mole fraction) (in acetonitrile, 318.15 K) of the same molecule?
Answer: 0.00134

Question: And the solubility (mole fraction) (in ethanol, 278.15 K)?
Answer: 0.000102

Question: And the solubility (mole fraction) (in ethanol, 283.15 K)?
Answer: 0.000148

Question: What about the solubility (mole fraction) (in ethanol, 288.15 K) of the same molecule?
Answer: 0.000219

Question: What about the solubility (mole fraction) (in ethanol, 293.15 K) of the same molecule?
Answer: 0.000309

Question: And the solubility (mole fraction) (in ethanol, 303.15 K)?
Answer: 0.000625

Question: What about the solubility (mole fraction) (in ethanol, 308.15 K) of the same molecule?
Answer: 0.000837

Question: And the solubility (mole fraction) (in ethanol, 313.15 K)?
Answer: 0.00115

Question: And the solubility (mole fraction) (in ethanol, 318.15 K)?
Answer: 0.00157

Question: What about the solubility (mole fraction) (in ethyl acetate, 278.15 K) of the same molecule?
Answer: 6.24e-05

Question: What about the solubility (mole fraction) (in ethyl acetate, 283.15 K) of the same molecule?
Answer: 9.09e-05

Question: And the solubility (mole fraction) (in ethyl acetate, 288.15 K)?
Answer: 0.000124

Question: And the solubility (mole fraction) (in ethyl acetate, 293.15 K)?
Answer: 0.000171

Question: What about the solubility (mole fraction) (in ethyl acetate, 298.15 K) of the same molecule?
Answer: 0.000246

Question: And the solubility (mole fraction) (in ethyl acetate, 303.15 K)?
Answer: 0.000348

Question: And the solubility (mole fraction) (in ethyl acetate, 308.15 K)?
Answer: 0.000471

Question: And the solubility (mole fraction) (in ethyl acetate, 313.15 K)?
Answer: 0.000643

Question: And the solubility (mole fraction) (in ethyl acetate, 318.15 K)?
Answer: 0.000861

Question: What about the solubility (mole fraction) (in isopropanol, 278.15 K) of the same molecule?
Answer: 3.46e-05

Question: What about the solubility (mole fraction) (in isopropanol, 283.15 K) of the same molecule?
Answer: 5.2e-05

Question: And the solubility (mole fraction) (in isopropanol, 288.15 K)?
Answer: 7.13e-05

Question: What about the solubility (mole fraction) (in isopropanol, 293.15 K) of the same molecule?
Answer: 0.000104

Question: And the solubility (mole fraction) (in isopropanol, 298.15 K)?
Answer: 0.000146

Question: What about the solubility (mole fraction) (in isopropanol, 303.15 K) of the same molecule?
Answer: 0.000201

Question: And the solubility (mole fraction) (in isopropanol, 308.15 K)?
Answer: 0.000269

Question: What about the solubility (mole fraction) (in isopropanol, 313.15 K) of the same molecule?
Answer: 0.000364

Question: And the solubility (mole fraction) (in isopropanol, 318.15 K)?
Answer: 0.000493

Question: What about the solubility (mole fraction) (in methanol, 278.15 K) of the same molecule?
Answer: 0.00023

Question: And the solubility (mole fraction) (in methanol, 283.15 K)?
Answer: 0.000345

Question: What about the solubility (mole fraction) (in methanol, 288.15 K) of the same molecule?
Answer: 0.000518

Question: What about the solubility (mole fraction) (in methanol, 293.15 K) of the same molecule?
Answer: 0.000715

Question: What about the solubility (mole fraction) (in methanol, 298.15 K) of the same molecule?
Answer: 0.000993

Question: What about the solubility (mole fraction) (in methanol, 303.15 K) of the same molecule?
Answer: 0.00141

Question: What about the solubility (mole fraction) (in methanol, 308.15 K) of the same molecule?
Answer: 0.00189

Question: What about the solubility (mole fraction) (in methanol, 313.15 K) of the same molecule?
Answer: 0.00259

Question: What about the solubility (mole fraction) (in methanol, 318.15 K) of the same molecule?
Answer: 0.00341

Question: What about the solubility (mole fraction) (in n-butanol, 278.15 K) of the same molecule?
Answer: 9.54e-06

Question: And the solubility (mole fraction) (in n-butanol, 283.15 K)?
Answer: 1.38e-05

Question: What about the solubility (mole fraction) (in n-butanol, 288.15 K) of the same molecule?
Answer: 2.08e-05

Question: And the solubility (mole fraction) (in n-butanol, 293.15 K)?
Answer: 3.1e-05

Question: What about the solubility (mole fraction) (in n-butanol, 298.15 K) of the same molecule?
Answer: 4.46e-05

Question: What about the solubility (mole fraction) (in n-butanol, 303.15 K) of the same molecule?
Answer: 6.39e-05

Question: And the solubility (mole fraction) (in n-butanol, 308.15 K)?
Answer: 8.42e-05

Question: And the solubility (mole fraction) (in n-butanol, 313.15 K)?
Answer: 0.000123

Question: What about the solubility (mole fraction) (in n-butanol, 318.15 K) of the same molecule?
Answer: 0.000165

Question: What about the solubility (mole fraction) (in n-propanol, 278.15 K) of the same molecule?
Answer: 5.11e-05

Question: What about the solubility (mole fraction) (in n-propanol, 283.15 K) of the same molecule?
Answer: 7.34e-05

Question: And the solubility (mole fraction) (in n-propanol, 288.15 K)?
Answer: 0.000103

Question: And the solubility (mole fraction) (in n-propanol, 293.15 K)?
Answer: 0.000147

Question: And the solubility (mole fraction) (in n-propanol, 298.15 K)?
Answer: 0.000199

Question: And the solubility (mole fraction) (in n-propanol, 303.15 K)?
Answer: 0.000285

Question: And the solubility (mole fraction) (in n-propanol, 308.15 K)?
Answer: 0.00038

Question: And the solubility (mole fraction) (in n-propanol, 313.15 K)?
Answer: 0.000509

Question: What about the solubility (mole fraction) (in n-propanol, 318.15 K) of the same molecule?
Answer: 0.000687

Question: And the solubility (mole fraction) (in toluene, 278.15 K)?
Answer: 3.96e-06

Question: What about the solubility (mole fraction) (in toluene, 283.15 K) of the same molecule?
Answer: 6.03e-06

Question: What about the solubility (mole fraction) (in toluene, 288.15 K) of the same molecule?
Answer: 8.89e-06

Question: And the solubility (mole fraction) (in toluene, 293.15 K)?
Answer: 1.28e-05

Question: What about the solubility (mole fraction) (in toluene, 298.15 K) of the same molecule?
Answer: 1.89e-05

Question: And the solubility (mole fraction) (in toluene, 303.15 K)?
Answer: 2.7e-05

Question: What about the solubility (mole fraction) (in toluene, 308.15 K) of the same molecule?
Answer: 3.81e-05

Question: And the solubility (mole fraction) (in toluene, 313.15 K)?
Answer: 5.53e-05

Question: What about the solubility (mole fraction) (in toluene, 318.15 K) of the same molecule?
Answer: 7.6e-05

Question: And the solubility (mole fraction) (in water, 278.15 K)?
Answer: 2.5e-05

Question: And the solubility (mole fraction) (in water, 283.15 K)?
Answer: 3.42e-05

Question: And the solubility (mole fraction) (in water, 288.15 K)?
Answer: 4.96e-05

Question: And the solubility (mole fraction) (in water, 293.15 K)?
Answer: 7.3e-05

Question: What about the solubility (mole fraction) (in water, 298.15 K) of the same molecule?
Answer: 9.52e-05

Question: What about the solubility (mole fraction) (in water, 303.15 K) of the same molecule?
Answer: 0.000132

Question: And the solubility (mole fraction) (in water, 308.15 K)?
Answer: 0.000187

Question: What about the solubility (mole fraction) (in water, 313.15 K) of the same molecule?
Answer: 0.000253

Question: What about the solubility (mole fraction) (in water, 318.15 K) of the same molecule?
Answer: 0.000339

Source: BigSolDB 2.1
